One assay addresses Tubulin (Homo sapiens) (UniProt P68371+Q9H4B7+P0DPH7+P68366+Q13509+Q71U36+P04350+Q3ZCM7+P07437+P68363+Q9BQE3+Q6PEY2+Q13885+Q9BVA1+Q9BUF5). Description: Inhibition of tubulin (unknown origin) polymerization assessed as polymerized tubulin level at 5 to 25 uM by fluorescence assay. It is filed as protein-complex assay.
The subject of the next assay is SK-MEL-5. Briefly: Growth inhibition of human SK-MEL-5 cells at 10 uM incubated for 48 hrs by sulforhodamine B assay relative to control. It is filed as functional. Conditions: SK-MEL-5, 48 h, read-out: GI.
The next assay relates to MCF7. Briefly: Growth inhibition of human MCF7 cells at 10 uM incubated for 48 hrs by sulforhodamine B assay relative to control. The class given is functional. Conditions: MCF7, 48 h, read-out: GI.
Another assay relates to UACC-257. Description: Growth inhibition of human UACC257 cells at 10 uM incubated for 48 hrs by sulforhodamine B assay relative to control. The class given is functional. Conditions: UACC-257, 48 h, read-out: GI. A general note: The SRB assay estimates cell density from bound dye.
A further assay concerns CCRF-CEM. Description: Growth inhibition of human CCRF-CEM cells at 10 uM incubated for 48 hrs by sulforhodamine B assay relative to control. The class given is functional. Conditions: read-out: GI.
A further assay has as its system NCI-H23. Briefly: Growth inhibition of human NCI-H23 cells at 10 uM incubated for 48 hrs by sulforhodamine B assay relative to control. The class given is functional. Conditions: NCI-H23, 48 h, read-out: GI.
In a further assay the test system is UO-31. Description: Growth inhibition of human UO31 cells at 10 uM incubated for 48 hrs by sulforhodamine B assay relative to control. It is filed as functional. The settings on record: UO-31, 48 h, read-out: GI.
The subject of a further assay is NCI-H460. Briefly: Antiproliferative activity against human H460 cells after 48 hrs by propidium iodide staining-based fluorometric analysis. Conditions: NCI-H460, 48 h. It is filed as functional, cell-based.
For a further assay, the system named is SK-MEL-2. Briefly: Growth inhibition of human SK-MEL-2 cells at 10 uM incubated for 48 hrs by sulforhodamine B assay relative to control. The class given is functional. Conditions: SK-MEL-2, 48 h, read-out: GI.
The next assay concerns RPMI-8226. Briefly: Growth inhibition of human RPMI8226 cells at 10 uM incubated for 48 hrs by sulforhodamine B assay relative to control. It is filed as functional. Conditions: RPMI-8226, 48 h, read-out: GI.
The next assay concerns NCI-H522. Briefly: Growth inhibition of human NCI-H522 cells at 10 uM incubated for 48 hrs by sulforhodamine B assay relative to control. The class given is functional. Conditions: NCI-H522, 48 h, read-out: GI.
The next assay relates to NCI-H322M. Description: Growth inhibition of human NCI-H322M cells at 10 uM incubated for 48 hrs by sulforhodamine B assay relative to control. It is filed as functional. Conditions: read-out: GI.
The next assay concerns SN12C. Briefly: Growth inhibition of human SN12C cells at 10 uM incubated for 48 hrs by sulforhodamine B assay relative to control. The settings on record: read-out: GI. The class given is functional.
The test system of another assay is OVCAR-8. Briefly: Growth inhibition of human OVCAR8 cells at 10 uM incubated for 48 hrs by sulforhodamine B assay relative to control. The class given is functional. The settings on record: OVCAR-8, 48 h, read-out: GI.
The subject of the next assay is PC-3. Description: Growth inhibition of human PC3 cells at 10 uM incubated for 48 hrs by sulforhodamine B assay relative to control. It is filed as functional. The settings on record: PC-3, 48 h, read-out: GI.
For another assay, the system named is SR. Description: Growth inhibition of human SR cells at 10 uM incubated for 48 hrs by sulforhodamine B assay relative to control. It is filed as functional. The settings on record: read-out: GI.
The test system of another assay is MOLT-4. Briefly: Growth inhibition of human MOLT4 cells at 10 uM incubated for 48 hrs by sulforhodamine B assay relative to control. It is filed as functional. Conditions: MOLT-4, 48 h, read-out: GI.
A further assay concerns HOP-92. Briefly: Growth inhibition of human HOP92 cells at 10 uM incubated for 48 hrs by sulforhodamine B assay relative to control. The settings on record: HOP-92, 48 h, read-out: GI. The class given is functional.
The subject of a further assay is HL-60(TB). Description: Growth inhibition of human HL-60(TB) cells at 10 uM incubated for 48 hrs by sulforhodamine B assay relative to control. The class given is functional. The settings on record: HL-60, 48 h, read-out: GI.
The subject of the next assay is A549. Description: Growth inhibition of human A549/ATCC cells at 10 uM incubated for 48 hrs by sulforhodamine B assay relative to control. The class given is functional. Conditions: A549, 48 h, read-out: GI.
Another assay deals with TK-10. Description: Growth inhibition of human TK10 cells at 10 uM incubated for 48 hrs by sulforhodamine B assay relative to control. The class given is functional. The settings on record: TK-10, 48 h, read-out: GI.
The test system of another assay is MIA PaCa-2. Description: Antiproliferative activity against human MIAPaCa2 cells after 48 hrs by propidium iodide staining-based fluorometric analysis. It is filed as functional, cell-based. The settings on record: MIA PaCa-2, 48 h.
The next assay relates to SW-620. Briefly: Growth inhibition of human SW620 cells at 10 uM incubated for 48 hrs by sulforhodamine B assay relative to control. The class given is functional. Conditions: SW-620, 48 h, read-out: GI.
Another assay deals with SF-268. Briefly: Growth inhibition of human SF268 cells at 10 uM incubated for 48 hrs by sulforhodamine B assay relative to control. It is filed as functional. Conditions: SF-268, 48 h, read-out: GI.
Assay [1] concerns HT-29. Description: Antiproliferative activity against human HT-29 cells after 48 hrs by propidium iodide staining-based fluorometric analysis. It is filed as functional, cell-based. Conditions: HT-29, 48 h.
A further assay concerns A498. Description: Growth inhibition of human A498 cells at 10 uM incubated for 48 hrs by sulforhodamine B assay relative to control. It is filed as functional. Conditions: A498, 48 h, read-out: GI.
The subject of a further assay is SF-539. Briefly: Growth inhibition of human SF539 cells at 10 uM incubated for 48 hrs by sulforhodamine B assay relative to control. Conditions: SF-539, 48 h, read-out: GI. It is filed as functional.
A further assay relates to K562. Description: Growth inhibition of human K562 cells at 10 uM incubated for 48 hrs by sulforhodamine B assay relative to control. It is filed as functional. The settings on record: K562, 48 h, read-out: GI.
The test system of a further assay is HOP-62. Briefly: Growth inhibition of human HOP62 cells at 10 uM incubated for 48 hrs by sulforhodamine B assay relative to control. It is filed as functional. Conditions: HOP-62, 48 h, read-out: GI.
The next assay has as its system PANC-1. Description: Antiproliferative activity against human PANC1 cells after 48 hrs by propidium iodide staining-based fluorometric analysis. The class given is functional, cell-based. The settings on record: PANC-1, 48 h.
Assay [2] has as its system HT-29. Description: Growth inhibition of human HT-29 cells at 10 uM incubated for 48 hrs by sulforhodamine B assay relative to control. The class given is functional. The settings on record: HT-29, 48 h, read-out: GI.
Another assay relates to Hs-578T. Briefly: Growth inhibition of human Hs 578T cells at 10 uM incubated for 48 hrs by sulforhodamine B assay relative to control. Conditions: read-out: GI. The class given is functional.
The next assay has as its system NCI-H226. Briefly: Growth inhibition of human NCI-H226 cells at 10 uM incubated for 48 hrs by sulforhodamine B assay relative to control. It is filed as functional. The settings on record: NCI-H226, 48 h, read-out: GI.
For a further assay, the system named is MDA-MB-435. Description: Growth inhibition of human MDA-MB-435 cells at 10 uM incubated for 48 hrs by sulforhodamine B assay relative to control. It is filed as functional. Conditions: MDA-MB-435, 48 h, read-out: GI.
The test system of a further assay is U-251. Description: Growth inhibition of human U251 cells at 10 uM incubated for 48 hrs by sulforhodamine B assay relative to control. It is filed as functional. Conditions: U-251, 48 h, read-out: GI.
For a further assay, the system named is SK-MEL-28. Briefly: Growth inhibition of human SK-MEL-28 cells at 10 uM incubated for 48 hrs by sulforhodamine B assay relative to control. The class given is functional. Conditions: SK-MEL-28, 48 h, read-out: GI.
In a further assay the test system is KM12. Briefly: Growth inhibition of human KM12 cells at 10 uM incubated for 48 hrs by sulforhodamine B assay relative to control. The class given is functional. The settings on record: KM12, 48 h, read-out: GI.
The next assay relates to SNB-75. Description: Growth inhibition of human SNB75 cells at 10 uM incubated for 48 hrs by sulforhodamine B assay relative to control. The class given is functional. Conditions: SNB-75, 48 h, read-out: GI.
A further assay relates to UACC-62. Briefly: Growth inhibition of human UACC62 cells at 10 uM incubated for 48 hrs by sulforhodamine B assay relative to control. The class given is functional. Conditions: UACC-62, 48 h, read-out: GI.
Another assay concerns T47D. Briefly: Growth inhibition of human T47D cells at 10 uM incubated for 48 hrs by sulforhodamine B assay relative to control. The class given is functional. Conditions: read-out: GI.
A further assay has as its system SK-OV-3. Description: Growth inhibition of human SKOV3 cells at 10 uM incubated for 48 hrs by sulforhodamine B assay relative to control. It is filed as functional. The settings on record: SK-OV-3, 48 h, read-out: GI.
In the next assay the test system is Malme-3M. Description: Growth inhibition of human MALME-3M cells at 10 uM incubated for 48 hrs by sulforhodamine B assay relative to control. Conditions: read-out: GI. The class given is functional.

Molecules are shown by their SMILES.

Consider `CC[C@]1(O)C[C@H]2CN(CCc3c([nH]c4ccccc34)[C@@](C(=O)OC)(c3cc4c(cc3OC)N(C=O)[C@H]3[C@@](O)(C(=O)OC)[C@H](OC(C)=O)[C@]5(CC)C=CCN6CC[C@]43[C@@H]65)C2)C1`, for which the Activity at Tubulin (Homo sapiens) came to 722 a.u.
For `COc1cc(-c2nc(N)n(CC(=O)Nc3ccc(/C(C)=N\O)cc3)n2)cc(OC)c1OC`, the inhibition of growth at 10 µM came to 2.08% in the assay with SK-MEL-5; 10.8% with MCF7; 36.3% with UACC-257; 15.5% in the assay with CCRF-CEM; 4.21% in the assay with NCI-H23; 20.5% with UO-31. Also, the inhibition of growth at 10 µM was 8% in the assay on SK-MEL-2; 5.69% with RPMI-8226; 29.2% in the assay with NCI-H522; 5.82% in the assay with NCI-H322M; 4% in the assay with SN12C; 25.7% in the assay with OVCAR-8. Besides, the inhibition of growth at 10 µM came to 23.3% in the assay on PC-3; 17% in the assay with SR; 8.41% with MOLT-4; 11.8% with HOP-92; 8.41% with HL-60(TB); 25.8% in the assay on A549. The inhibition of growth at 10 µM with TK-10 was 9.11%; with SW-620, 4.8%; with SF-268, 6.49%; in the assay with A498, 11.2%; with SF-539, 2.92%; with K562, 3.93%. The inhibition of growth at 10 µM with HOP-62 was found to be 5.54%; with HT-29 [2] it was 13.6%; in the assay with Hs-578T, 17.9%; in the assay on NCI-H226 it was 5.19%; in the assay on MDA-MB-435, 18%; with U-251 it was 14.2%. Also, the inhibition of growth at 10 µM was 5.76% in the assay on SK-MEL-28; 2.75% with KM12; 25.9% in the assay on SNB-75; 16.4% with UACC-62; 8.77% with T47D; 12.1% in the assay on SK-OV-3. The inhibition of growth at 10 µM in the assay with Malme-3M was 3.25%. Also, the IC50 with NCI-H460 was 7.9 µM; in the assay with MIA PaCa-2, 5.7 µM; in the assay with HT-29 [1] it was 7.9 µM; in the assay on PANC-1, 5.2 µM.

Usually IC50 stands for the concentration that gives 50% inhibition. A lower IC50 goes with greater potency.

Values taken from ChEMBL document CHEMBL4270577, “Synthesis, anticancer activity and molecular modeling studies of 1,2,4-triazole derivatives as EGFR inhibitors” (Eur J Med Chem, 2018).
